The supplement of paper PMC10307832

Assays:
Assay in all cases: relative viability (nuclei count vs DMSO), 5 days (fraction); higher = more cells survive
[1] = test system: A549
Procedure, shortened: (§1)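 Lung cancer cell lines were pin-tool dosed in 1536-well plates on the day after seeding, with either a lone drug or a fixed anchor-drug dose plus five library-drug doses (not always all listed) in √10 steps. Nuclei were counted on 4× images after 5 days. Relative viability is the ratio of treated-well to vehicle-well nuclei counts, with each value a median of duplicate plates.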

[2] = test system: NCI-H1299
Procedure, shortened: as §1

[3] = test system: NCI-H1651
Procedure, shortened: as §1

[4] = test system: EBC-1
Procedure, shortened: as §1

[5] = test system: SK-MES-1
Procedure, shortened: as §1

[6] = test system: NCI-H1703
Procedure, shortened: as §1

[7] = test system: IA-LM
Procedure, shortened: as §1

[8] = test system: Calu-6
Procedure, shortened: as §1

`C=C1C(=O)O[C@@H](CCCCCCCC)[C@@H]1C(=O)O` [C-75] + CS(=O)(=O)CCNCc1ccc(-c2ccc3ncnc(Nc4ccc(OCc5cccc(F)c5)c(Cl)c4)c3c2)o1 [Lapatinib] (partner 2 µM) gave a relative viability ([1]; first compound 0.08 µM) of 1.01, a relative viability ([1]; first compound 0.253 µM) of 1.1 and a relative viability ([1]; first compound 0.8 µM) of 0.798. The relative viability ([1]; first compound 2.53 µM) was 0.937, the relative viability ([1]; first compound 8 µM) was 0.89 and the relative viability ([2]; first compound 0.08 µM) was 0.971. For the same compound, the relative viability ([2]; first compound 0.253 µM) was 1, the relative viability ([2]; first compound 0.8 µM) was 0.935 and the relative viability ([2]; first compound 2.53 µM) was 0.946. For the same compound, the relative viability ([2]; first compound 8 µM) was 0.955, the relative viability ([3]; first compound 0.08 µM) was 0.706 and the relative viability ([3]; first compound 0.253 µM) was 0.853. The relative viability ([3]; first compound 0.8 µM) was 0.816, the relative viability ([3]; first compound 2.53 µM) was 0.747 and the relative viability ([3]; first compound 8 µM) was 0.81. It also gave a relative viability ([4]; first compound 0.08 µM) of 0.259, a relative viability ([4]; first compound 0.253 µM) of 0.237 and a relative viability ([4]; first compound 0.8 µM) of 0.18. The relative viability ([4]; first compound 2.53 µM) was 0.243, the relative viability ([4]; first compound 8 µM) was 0.224 and the relative viability ([5]; first compound 0.08 µM) was 0.442. It also gave a relative viability ([5]; first compound 0.253 µM) of 0.441, a relative viability ([5]; first compound 0.8 µM) of 0.397 and a relative viability ([5]; first compound 8 µM) of 0.429. The relative viability ([6]; first compound 0.08 µM) was 1.17, the relative viability ([6]; first compound 0.8 µM) was 0.977 and the relative viability ([6]; first compound 2.53 µM) was 1.17. For the same compound, the relative viability ([6]; first compound 8 µM) was 0.888, the relative viability ([7]; first compound 0.08 µM) was 0.816 and the relative viability ([7]; first compound 0.253 µM) was 0.954. The relative viability ([7]; first compound 8 µM) was 0.476, the relative viability ([8]; first compound 0.08 µM) was 1.03 and the relative viability ([8]; first compound 0.253 µM) was 1.06. For the same compound, the relative viability ([8]; first compound 0.8 µM) was 1.04, the relative viability ([8]; first compound 2.53 µM) was 0.894 and the relative viability ([8]; first compound 8 µM) was 0.925.

For `NC(=O)Nc1cc(-c2cccc(F)c2)sc1C(=O)N[C@H]1CCCNC1` [AZD7762] + C[C@]1(O)C[C@@H](c2nc(-c3ccc4ccc(-c5ccccc5)nc4c3)c3c(N)nccn32)C1 [Linsitinib] (partner 1 µM), the relative viability ([1]; first compound 0.01 µM) was 0.564, the relative viability ([1]; first compound 0.03162 µM) was 0.577 and the relative viability ([1]; first compound 0.1 µM) was 0.705. It also gave a relative viability ([1]; first compound 0.3162 µM) of 0.616, a relative viability ([1]; first compound 1 µM) of 0.494 and a relative viability ([2]; first compound 0.01 µM) of 0.99. The relative viability ([2]; first compound 0.03162 µM) was 0.995, the relative viability ([2]; first compound 0.1 µM) was 1.04 and the relative viability ([2]; first compound 0.3162 µM) was 1. It also gave a relative viability ([2]; first compound 1 µM) of 0.323, a relative viability ([3]; first compound 0.01 µM) of 1.03 and a relative viability ([3]; first compound 0.03162 µM) of 0.904. For the same compound, the relative viability ([3]; first compound 0.1 µM) was 0.902, the relative viability ([3]; first compound 0.3162 µM) was 0.702 and the relative viability ([3]; first compound 1 µM) was 0.358. For the same compound, the relative viability ([4]; first compound 0.01 µM) was 1.01, the relative viability ([4]; first compound 0.03162 µM) was 0.877 and the relative viability ([4]; first compound 0.1 µM) was 1.03. It also gave a relative viability ([4]; first compound 0.3162 µM) of 0.884, a relative viability ([4]; first compound 1 µM) of 0.76 and a relative viability ([5]; first compound 0.01 µM) of 1.06. It also gave a relative viability ([5]; first compound 0.03162 µM) of 1.12, a relative viability ([5]; first compound 0.1 µM) of 1.11 and a relative viability ([5]; first compound 0.3162 µM) of 1.04. It also gave a relative viability ([5]; first compound 1 µM) of 0.414, a relative viability ([6]; first compound 0.01 µM) of 0.688 and a relative viability ([6]; first compound 0.03162 µM) of 0.164. The relative viability ([6]; first compound 0.1 µM) was 0.181, the relative viability ([6]; first compound 0.3162 µM) was 0.164 and the relative viability ([6]; first compound 1 µM) was 0.177. The relative viability ([7]; first compound 0.01 µM) was 0.713, the relative viability ([7]; first compound 0.03162 µM) was 0.663 and the relative viability ([7]; first compound 0.1 µM) was 0.629. For the same compound, the relative viability ([7]; first compound 0.3162 µM) was 0.628, the relative viability ([7]; first compound 1 µM) was 0.47 and the relative viability ([8]; first compound 0.01 µM) was 1.02. The relative viability ([8]; first compound 0.03162 µM) was 0.964, the relative viability ([8]; first compound 0.1 µM) was 0.944 and the relative viability ([8]; first compound 0.3162 µM) was 0.649. For the same compound, the relative viability ([8]; first compound 1 µM) was 0.14.

`NC(=O)Nc1cc(-c2cccc(F)c2)sc1C(=O)N[C@H]1CCCNC1` [AZD7762] + Cc1nc(NC(=O)N2CCC[C@H]2C(N)=O)sc1-c1ccnc(C(C)(C)C(F)(F)F)c1 [Alpelisib] (partner 2 µM) gave a relative viability ([1]; first compound 0.01 µM) of 0.748, a relative viability ([1]; first compound 0.03162 µM) of 0.86 and a relative viability ([1]; first compound 0.1 µM) of 0.83. For the same compound, the relative viability ([1]; first compound 0.3162 µM) was 0.84, the relative viability ([1]; first compound 1 µM) was 0.336 and the relative viability ([2]; first compound 0.01 µM) was 1.16. It also gave a relative viability ([2]; first compound 0.03162 µM) of 1.01, a relative viability ([2]; first compound 0.1 µM) of 1.03 and a relative viability ([2]; first compound 0.3162 µM) of 1.04. It also gave a relative viability ([2]; first compound 1 µM) of 0.942, a relative viability ([3]; first compound 0.01 µM) of 0.918 and a relative viability ([3]; first compound 0.03162 µM) of 0.849. It also gave a relative viability ([3]; first compound 0.1 µM) of 0.927, a relative viability ([3]; first compound 0.3162 µM) of 0.753 and a relative viability ([3]; first compound 1 µM) of 0.33. It also gave a relative viability ([4]; first compound 0.01 µM) of 0.952, a relative viability ([4]; first compound 0.03162 µM) of 0.714 and a relative viability ([4]; first compound 0.1 µM) of 0.831. For the same compound, the relative viability ([4]; first compound 0.3162 µM) was 0.763, the relative viability ([4]; first compound 1 µM) was 0.367 and the relative viability ([5]; first compound 0.01 µM) was 0.968. For the same compound, the relative viability ([5]; first compound 0.03162 µM) was 0.946, the relative viability ([5]; first compound 0.1 µM) was 1.02 and the relative viability ([5]; first compound 0.3162 µM) was 1.09. It also gave a relative viability ([5]; first compound 1 µM) of 0.591, a relative viability ([6]; first compound 0.01 µM) of 0.314 and a relative viability ([6]; first compound 0.03162 µM) of 0.224. The relative viability ([6]; first compound 0.1 µM) was 0.231, the relative viability ([6]; first compound 0.3162 µM) was 0.164 and the relative viability ([6]; first compound 1 µM) was 0.146. The relative viability ([7]; first compound 0.01 µM) was 0.828, the relative viability ([7]; first compound 0.03162 µM) was 0.702 and the relative viability ([7]; first compound 0.1 µM) was 0.885. The relative viability ([7]; first compound 0.3162 µM) was 1.07, the relative viability ([7]; first compound 1 µM) was 0.364 and the relative viability ([8]; first compound 0.01 µM) was 1.03. It also gave a relative viability ([8]; first compound 0.03162 µM) of 0.935, a relative viability ([8]; first compound 0.1 µM) of 0.881 and a relative viability ([8]; first compound 0.3162 µM) of 0.411. The relative viability ([8]; first compound 1 µM) was 0.157.
